The record followed here is patent US11149031B2, “Substituted N-(3-fluoropropyl)-pyrrolidine compounds, processes for their preparation and therapeutic uses thereof” (SANOFI, priority 2016, dated 2021).

Each structure is given as a SMILES string.

For assay [1], the target named is His6-ERα298-554 Y537S mutant (ERα ligand-binding domain) (Homo sapiens (Human), UniProt P03372, Y537S). Nature of the assay: Test A: biochemical antagonist activity, LanthaScreen TR-FRET ERα coactivator assay, Y537S mutant. The note with it: protocol with 3 nM estradiol; read-out: Antagonism Y537S IC50. The protocol:
(§1) Test A: Biochemical Antagonist Activity on Wild Type (WT) and Mutants
(§2) Estrogen Receptors Test A involves measuring the in vitro antagonist activity of the compounds of the invention on estrogen receptors.
(§3) The measurements of the antagonist activities were made using an estrogen receptor coactivator assay as described hereunder.
(§4) Antagonistic potency of compounds was evaluated using LanthaScreen® TR-FRET ERα Coactivator Assay (ThermoFisher) with modifications. […] The assay works in a homogeneous mix-and-read format. In a typical experiment, a 4 μL mixture of 0.5 nM His6-ERα298-554, 0.5 nM Tb-labeled His6 antibody, 250 nM PGC1a peptide, and 3 nM estradiol (or 10 nM estradiol) in 100 mM potassium phosphate, pH 7.4, 0.01% Tween-20, 0.02% NaN3, 5 mM DTT, was added to 40 nL test compound in DMSO and incubated overnight at room temperature. The TR-FRET 520:495 nm emission ratio was calculated and used to determine the IC50 value from a dose response curve fit to the 4-parameter logistic equation.
A general note: TR-FRET usually uses a lanthanide donor and a delayed reading to cut background.

In assay [2] the target is His6-ERα298-554 D538G mutant (ERα ligand-binding domain) (Homo sapiens (Human), UniProt P03372, D538G). Nature of the assay: Test A: biochemical antagonist activity, LanthaScreen TR-FRET ERα coactivator assay, D538G mutant. Conditions: protocol with 3 nM estradiol; read-out: Antagonism D538G IC50. The protocol:
as §1, §2, §3, §4

Assay [3] deals with His6-ERα298-554 WT (ERα ligand-binding domain) (Homo sapiens (Human), UniProt P03372). The assay can be described thus: Test A: biochemical antagonist activity, LanthaScreen TR-FRET ERα coactivator assay, WT. The note with it: protocol with 3 nM estradiol; read-out: Antagonism WT IC50. Here is the method:
as §1, §2, §3, §4

For another assay, the target named is ERα in MCF7 cells (Homo sapiens (Human), UniProt P03372). Nature of the assay: Test C: estrogen receptor degradation activity, ERα in cell western assay in MCF7 cells. It is filed as cell-based. The note with it: for DC50: 4 hours post compound addition, ERα in cell western, read-out: Degradation IC50; for % Degradation at 3 μM: 4 hours, relative to fulvestrant. Here is the method: Test C: Estrogen Receptor Degradation Activity
Sequence of ERα in MCF7 cells (P03372 whole entry): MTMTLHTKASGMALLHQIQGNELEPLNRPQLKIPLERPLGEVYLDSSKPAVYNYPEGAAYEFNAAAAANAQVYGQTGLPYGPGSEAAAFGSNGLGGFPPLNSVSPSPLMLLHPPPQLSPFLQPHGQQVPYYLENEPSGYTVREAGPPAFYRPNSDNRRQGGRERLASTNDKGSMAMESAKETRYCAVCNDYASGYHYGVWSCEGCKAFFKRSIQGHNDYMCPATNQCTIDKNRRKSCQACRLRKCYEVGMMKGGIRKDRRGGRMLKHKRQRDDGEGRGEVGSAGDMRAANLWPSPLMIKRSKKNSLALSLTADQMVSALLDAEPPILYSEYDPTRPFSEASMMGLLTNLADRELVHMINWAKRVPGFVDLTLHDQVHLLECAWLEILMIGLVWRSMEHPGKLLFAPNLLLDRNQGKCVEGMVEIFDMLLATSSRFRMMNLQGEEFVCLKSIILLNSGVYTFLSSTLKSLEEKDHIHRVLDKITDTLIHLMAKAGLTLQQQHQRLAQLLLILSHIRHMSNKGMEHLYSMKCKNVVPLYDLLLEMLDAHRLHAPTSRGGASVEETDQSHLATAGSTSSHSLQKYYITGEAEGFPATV
Test C involves measuring the in vitro degradation activity of the compounds of the invention.
The measurements of the degradation activities were made using abreast cancer cell ERα in cell western assay as described hereunder.
MCF7 cells (ATCC) were seeded in 384 wells microplate (collagen coated) at concentration of >9990 cells/30 μL per well in red phenol free MEM alpha medium (invitrogen) containing 5% charcoal dextran striped FBS. The following day, 9 points serial 1:5 dilution of each compound were added to the cells in 2.5 μL at final concentrations ranging from 3-0.000018 μM or 0.1 μM for fulvestrant (using as positive control). At 4 hours post compounds addition the cells were fixed by adding 25 μL of formalin (final concentration 5% formalin containing 0.1% triton) for 10 minutes at room temperature and then washed twice with PBS. Then, 50 μL of LI-COR blocking buffer containing 0.1% Triton was added to plate for 30 minutes at room temperature. LI-COR blocking buffer was removed and cells were incubated overnight at cold room with 50 μL anti-ER rabbit monoclonal antibody (Thermo scientific MA1-39540) diluted at 1:>999 in LI-COR blocking buffer containing 0.1% tween-20. Wells which were treated with blocking but no antibody were used as background control. Wells were washed twice with PBS (0.1% tween-20) and incubated at 37° C. for 60 minutes in LI-COR (0.1% tween-20) containing goat anti-rabbit antibody Alexa 488 (1:>999) and Syto-64 a DNA dye (2 μM final concentration). Cells were then washed 3 times in PBS and scanned in ACUMEN explorer (TTP-Labtech). Integrated intensities in the green fluorescence and red fluorescence were measured to determine the levels of ERα and DNA respectively.

Sequence of His6-ERα298-554 D538G mutant (ERα ligand-binding domain) (P03372 298-554 D538G): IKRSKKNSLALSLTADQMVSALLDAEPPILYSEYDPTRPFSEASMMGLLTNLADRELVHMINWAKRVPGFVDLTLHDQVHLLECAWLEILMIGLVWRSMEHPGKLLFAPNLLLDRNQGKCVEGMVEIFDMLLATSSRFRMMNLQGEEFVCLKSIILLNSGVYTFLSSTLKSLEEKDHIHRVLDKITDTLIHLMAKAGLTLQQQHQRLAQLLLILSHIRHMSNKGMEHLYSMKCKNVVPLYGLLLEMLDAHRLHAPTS
Sequence of His6-ERα298-554 Y537S mutant (ERα ligand-binding domain) (P03372 298-554 Y537S): as the sequence (P03372 298-554 D538G) above, with Y240S, G241D counted along it
Sequence of His6-ERα298-554 WT (ERα ligand-binding domain) (P03372 298-554): as the sequence (P03372 298-554 D538G) above, with G241D counted along it

A word on the IC50: it is the concentration needed to halve the response being measured. With `Oc1ccc2c(c1)OCCC(c1cccc3c1CCN3)=C2c1ccc(O[C@H]2CCN(CCCF)C2)cc1` [Example 117, 5-[4-[(3S)-1-(3-fluoropropyl)pyrrolidin-3-yl]oxyphenyl]-4-indolin-4-yl-2,3-dihydro-1-benzoxepin-8-ol], the IC50 in assay [1] amounted to 214 nM; in assay [2] it was 309 nM; in assay [3] it was 32 nM. The DC50 on ERα in MCF7 cells stood at 3 nM. Further, the “% Degradation at 3 μM” value on ERα in MCF7 cells is given as 92%.
Take `Oc1ccc2c(c1)SCC(c1ccc3[nH]ccc3c1)=C2c1ccc(O[C@H]2CCN(CCCF)C2)cc1` [Example 19, 4-[4-[(3S)-1-(3-fluoropropyl)pyrrolidin-3-yl]oxyphenyl]-3-(1H-indol-5-yl)-2H-thiochromen-7-ol]: the results for the IC50 in assay [1], in assay [2] and in assay [3] were 11 nM, 23 nM and 7 nM, respectively. In addition, at ERα in MCF7 cells, the DC50 was found to be 3 nM. The “% Degradation at 3 μM” value at ERα in MCF7 cells is 78%.
On the same counts, the results for `Cc1c(Cl)cccc1C1=C(c2ccc(O[C@H]3CCN(CCCF)C3)cc2)c2ccc(O)cc2SCC1` [Example 163, 4-(3-chloro-2-methyl-phenyl)-5-[4-[(3S)-1-(3-fluoropropyl)pyrrolidin-3-yl]oxyphenyl]-2,3-dihydro-1-benzothiepin-8-ol] are 19 nM, 24 nM, 5 nM, 0.6 nM and 94%.
In the same order, the values of `Cc1c(Cl)cccc1C1=C(c2ccc(O[C@H]3CCN(CCCF)C3)cc2)c2ccc(O)cc2OCC1` [Example 101, 4-(3-chloro-2-methyl-phenyl)-5-[4-[(3S)-1-(3-fluoropropyl)pyrrolidin-3-yl]oxyphenyl]-2,3-dihydro-1-benzoxepin-8-ol] are 25 nM, 50 nM, 6 nM, 0.6 nM and 92%.
On the same counts, the results for `Oc1ccc2c(c1)SCCC(c1ccc(Cl)c(F)c1)=C2c1ccc(O[C@H]2CCN(CCCF)C2)cc1` [Example 161, 4-(4-chloro-3-fluoro-phenyl)-5-[4-[(3S)-1-(3-fluoropropyl)pyrrolidin-3-yl]oxyphenyl]-2,3-dihydro-1-benzothiepin-8-ol] are 22 nM, 31 nM, 6 nM, 0.7 nM and 93%.
As to `Oc1ccc2c(c1F)OCCC(c1ccc3c(c1)NCC3)=C2c1ccc(O[C@H]2CCN(CCCF)C2)cc1` [Example 132, 9-fluoro-5-[4-[(3S)-1-(3-fluoropropyl)pyrrolidin-3-yl]oxyphenyl]-4-indolin-6-yl-2,3-dihydro-1-benzoxepin-8-ol], the values for the IC50 in assay [1], in assay [2] and in assay [3] were 334 nM, 473 nM and 28 nM, respectively. Further, the DC50 on ERα in MCF7 cells was 2 nM. In addition, the “% Degradation at 3 μM” value on ERα in MCF7 cells came to 88%.
On the same counts, the results for `Oc1ccc2c(c1)OCCC(c1ccc3c(c1)CCN3)=C2c1ccc(O[C@H]2CCN(CCCF)C2)cc1` [Example 104, 5-[4-[(3S)-1-(3-fluoropropyl)pyrrolidin-3-yl]oxyphenyl]-4-indolin-5-yl-2,3-dihydro-1-benzoxepin-8-ol] are 23 nM, 54 nM, 12 nM, 0.2 nM and 88%.
In the same order, the values of `Oc1ccc2c(c1F)OCCC(c1ccc3cc[nH]c3c1)=C2c1ccc(O[C@H]2CCN(CCCF)C2)cc1` [Example 131, 9-fluoro-5-[4-[(3S)-1-(3-fluoropropyl)pyrrolidin-3-yl]oxyphenyl]-4-(1H-indol-6-yl)-2,3-dihydro-1-benzoxepin-8-ol] are 276 nM, 340 nM, 19 nM, 3 nM and 83%.
With `Oc1ccc2c(c1)C(c1ccc(O[C@H]3CCN(CCCF)C3)cc1)=C(c1ccc(Cl)cc1Cl)CCS2` [Example 182, 4-(2,4-dichlorophenyl)-5-[4-[(3S)-1-(3-fluoropropyl)pyrrolidin-3-yl]oxyphenyl]-2,3-dihydro-1-benzothiepin-7-ol], on ERα in MCF7 cells, the DC50 worked out at 5 nM and the “% Degradation at 3 μM” value turned out to be 79%.
For the compound `Oc1ccc2c(c1)C(c1ccc(O[C@H]3CCN(CCCF)C3)cc1)=C(c1ccc(Cl)cc1F)CCS2` [Example 181, 4-(4-chloro-2-fluoro-phenyl)-5-[4-[(3S)-1-(3-fluoropropyl)pyrrolidin-3-yl]oxyphenyl]-2,3-dihydro-1-benzothiepin-7-ol], the half-inhibitory concentration (IC50) is 54 nM in assay [1], 135 nM in assay [2] and 25 nM in assay [3]. Also, the DC50 at ERα in MCF7 cells turned out to be 3 nM. Further, the “% Degradation at 3 μM” value at ERα in MCF7 cells came to 83%.
In the same order, the values of `Cc1cc2c(cc1O)OCCC(c1ccc3[nH]ccc3c1)=C2c1ccc(O[C@H]2CCN(CCCF)C2)cc1` [Example 139, 5-[4-[(3S)-1-(3-fluoropropyl)pyrrolidin-3-yl]oxyphenyl]-4-(1H-indol-5-yl)-7-methyl-2,3-dihydro-1-benzoxepin-8-ol] are 819 nM, 1170 nM, 68 nM, 9 nM and 73%.
On the same counts, the results for `Oc1ccc2c(c1)SCCC(c1ccc3[nH]ccc3c1)=C2c1ccc(O[C@H]2CCN(CCCF)C2)cc1` [Example 160, 5-[4-[(3S)-1-(3-fluoropropyl)pyrrolidin-3-yl]oxyphenyl]-4-(1H-indol-5-yl)-2,3-dihydro-1-benzothiepin-8-ol] are 8 nM, 13 nM, 3 nM, 0.2 nM and 75%.
In the same order, the values of `Oc1cccc(C2=C(c3ccc(O[C@H]4CCN(CCCF)C4)cc3)c3ccc(O)cc3OCC2)c1` [Example 91, 5-[4-[(3S)-1-(3-fluoropropyl)pyrrolidin-3-yl]oxyphenyl]-4-(3-hydroxyphenyl)-2,3-dihydro-1-benzoxepin-8-ol] are 6 nM, 10 nM, 2 nM, 0.4 nM and 91%.
With `O=S1(=O)CCC(c2ccc(Cl)cc2Cl)=C(c2ccc(O[C@H]3CCN(CCCF)C3)cc2)c2ccc(O)cc21` [Example 231, 4-(2,4-dichlorophenyl)-5-[4-[(3S)-1-(3-fluoropropyl)pyrrolidin-3-yl]oxyphenyl]-1,1-dioxo-2,3-dihydro-1λ^6-benzothiepin-8-ol], on ERα in MCF7 cells, the DC50 amounted to 2 nM and the “% Degradation at 3 μM” value was found to be 96%.
Turning to `Oc1ccc2c(c1)C(c1ccc(O[C@H]3CCN(CCCF)C3)cc1)=C(c1ccc(F)cc1Cl)CC2` [Example 4, 7-(2-chloro-4-fluoro-phenyl)-8-[4-[(3S)-1-(3-fluoropropyl)pyrrolidin-3-yl]oxyphenyl]-5,6-dihydronaphthalen-2-ol], the half-maximal inhibitory concentration (IC50) in assay [3] stood at 284 nM. At ERα in MCF7 cells, the DC50 came to 12 nM and the “% Degradation at 3 μM” value is recorded as 87%.
In the case of `Oc1ccc2c(c1)C(c1ccc(O[C@H]3CCN(CCCF)C3)cc1)=C(c1ccncc1F)CC2` [Example 1, 8-[4-[(3S)-1-(3-fluoropropyl)pyrrolidin-3-yl]oxyphenyl]-7-(3-fluoro-4-pyridyl)-5,6-dihydronaphthalen-2-ol], the IC50 in assay [3] was found to be 460 nM. On ERα in MCF7 cells, the DC50 came to 34 nM and the “% Degradation at 3 μM” value turned out to be 84%.
In the same order, the values of `Oc1ccc2c(c1)C(c1ccc(O[C@H]3CCN(CCCF)C3)cc1)=C(C1=CCOCC1)CC2` [Example 3, 7-(3,6-dihydro-2H-pyran-4-yl)-8-[4-[(3S)-1-(3-fluoropropyl)pyrrolidin-3-yl]oxyphenyl]-5,6-dihydronaphthalen-2-ol] are 1510 nM, 85 nM and 80%.
